Data taken from US12172957B2, “Attractant composition for the species Delottococcus aberiae, methods for the monitoring, detection and/or control of the pest” (Ecologia y Proteccion Agricola, S.L., priority 2018, dated 2024).
“And” between values parts separate entries of the source, which are not always exact repeats. Identical values can stand only once.

Experiments:
[1] = tested on: male Delottococcus aberiae; test: Choice test in glass Petri dish: response of males to the compound vs. pentane control, laboratory conditions; assay type: in vivo; conditions: 10 μl on 1 cm^2 filter paper vs. pentane negative control; 10 min; χ2 test P<0.05; FIG. 2
Procedure: The response of male Delottococcus aberiae to (4,5,5-trimethyl-3-methylenecyclopent-1-en-1-yl)methyl acetate was evaluated in the Centro de Ecologia Quimica Agricola (UPV, Valencia) by means of a test on the activity in a glass Petri dish. The tests were performed with light and under the same breeding conditions, at 23±2° C. and 60-70% relative humidity.
For these tests, males from breeding were also used, separated on Petri dishes right when the cottony cocoon begins to form. After pupating and finally emerging from the cocoon, the insects are observed under a binocular scope to confirm their state before being selected for the test.
The method used is described below: for each test, there were placed at opposite ends of the Petri dish a sample of (4,5,5-trimethyl-3-methylenecyclopent-1-en-1-yl)methyl acetate and a negative control (solvent pentane without activity), arranged on 1 cm^2 filter paper in an amount of 10 μl. Immediately, groups of males are carefully deposited on the test plate with the aid of a very fine brush. Therefore, the behaviour of the individuals with respect to the sources of stimulation is recorded for 10 min. Once the test has ended, the insects are discarded, such that each insect is exposed to olfactory stimuli only once. The obtained data were analysed by means of a Chi-squared test (χ2 test, P<0.05).

[2] = tested on: male Delottococcus aberiae; test: Field tests on the attraction response: baited adhesive traps in a citrus plot; assay type: in vivo
Procedure: The response in male Delottococcus aberiae to (4,5,5-trimethyl-3-methylenecyclopent-1-en-1-yl)methyl acetate was evaluated in two field tests performed in a citrus var. Marisol plot, located in Sagunto (Valencia), during the months of May-June 2018. In a first test, 3 blocks of 2 devices were installed, said devices being: (A) a device with carrier, without attractant substance and with a trap consisting of a white sheet with adhesive, (B) a device with carrier with bait containing 500 μg of (4,5,5-trimethyl-3-methylenecyclopent-1-en-1-yl)methyl acetate and a trap consisting of a white sheet with adhesive (95×150 mm) (in each block, the devices were located at a distance of 20 m from one another, whereas the distance between blocks was at least 30 m. The carriers loaded with (4,5,5-trimethyl-3-methylenecyclopent-1-en-1-yl)methyl acetate were septum-type carriers and were inserted in the centre of the trap.
The captures obtained in each of the traps were checked each week and the captured individuals were taken to the laboratory to be identified and counted. Traps in the same block were rotated each week.
The number of males captured per trap and day was compared by means of an analysis of variance (ANOVA; LSD test for comparison of the means, P<0.05), subject to transformation (In(x+1)) of the data to homogenise the variance.
In a second test, this was performed in the same way as test 1, but device B included bait containing 100 μg of (4,5,5-trimethyl-3-methylenecyclopent-1-en-1-yl)methyl acetate.

[3] = Analysis of the attractant content of the septum carriers after 20 days in the field (emission); assay type: physicochemical
Procedure: Therefore, the mean emission for those 20 days is 9.45±2.13 μg/day. […] Therefore, the mean emission for those 20 days is 0.55±0.42 μg/day.

[4] = first field test, tested load 300 μg per septa

Final content of the substance after 20 days [3, 4]: 109 µg | Mean emission for those 20 days [3, 4]: 9.45 ± 2.13 µg/day | Final content of the substance after 20 days ([3]; second field test, bait 100 μg): 91 µg | Mean emission for those 20 days ([3]; second field test, bait 100 μg): 0.55 ± 0.42 µg/day
SMILES: C=C1C=C(COC(C)=O)C(C)(C)C1C (racemic) [Pheromone, (4,5,5-trimethyl-3-methylenecyclopent-1-en-1-yl)methyl acetate]
Response of male Delottococcus aberiae in the test of choice [1]: significant attractant response | Male captures per trap and day ([2]; first field test, Table 1, bait 500 μg (300 μg per septa), single traps): 61.0 and 52.7 and 58.0 | Average field captures per trap and day ([2]; first field test, bait 500 μg (300 μg elsewhere in the source), controls 0.11, P<0.001): 57.22 | Attraction power of baited devices vs. traps without attractant ([2]; first field test, septum bait, white adhesive trap, ANOVA, LSD P<0.05, FIG. 3): significantly higher attraction power | Average field captures per trap and day ([2]; second field test, bait 100 μg, controls 0.06, P<0.036): 9.14
